# From patent publication US20060069132A1, “Azolecarboxamide herbicides” (priority 2004, published 2006)
# Tests used:
# yellow nutsedge = test: Test C pre-/postemergence herbicide test; format: in vivo, Cyperus esculentus; settings: preemergence
# How it was run: (§1)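 Greenhouse-grown plants were evaluated visually 12 to 14 days after treatment, with 100 meaning complete control and 0 no effect. Application was preemergence, or postemergence at 2 to 18 cm.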
# ducksalad = test: Test C flooded paddy test; format: in vivo, Heteranthera limosa; settings: for Plant response rating, Ducksalad: 500 g ai/ha, visual rating after 12 to 14 days
# corn = test: Test C pre-/postemergence herbicide test; format: in vivo, Zea mays; settings: preemergence
# How it was run: as §1
# giant foxtail = test: Test B pre-/postemergence herbicide test; format: in vivo, Setaria faberi; settings: for Plant response rating (0 to 100 scale), Foxtail, Giant: 0 is no effect, 100 is complete control, preemergence; for Foxtail, Giant plant response rating: scale 0 (no effect) to 100 (complete control)
# How it was run: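 Response was scored visually 13 to 15 days after treatment against untreated greenhouse controls, 0 meaning no effect and 100 complete control. Formulations (solvent mixture plus surfactant) went onto soil after planting, onto foliage of 1- to 4-leaf plants, and onto 2-leaf plants in a flooded paddy set including rice and barnyardgrass.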
# cocklebur = test: Test C pre-/postemergence herbicide test; format: in vivo, Xanthium strumarium; settings: preemergence; for Plant response rating (0 = no effect, 100 = complete control), Cocklebur: 125 g ai/ha
# How it was run: as §1
# kochia = test: Test C pre-/postemergence herbicide test; format: in vivo, Kochia scoparia; settings: preemergence; for Plant response rating (0 = no effect, 100 = complete control), Kochia: 125 g ai/ha
# How it was run: as §1
# barnyardgrass = test: Test C flooded paddy test; format: in vivo, Echinochloa crus-galli; settings: for Plant response rating, Barnyardgrass: 500 g ai/ha, visual rating after 12 to 14 days
# How it was run: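 Injury scored visually against controls on a 0 (no effect) to 100 (complete control) scale, 12 to 14 days after treatment in greenhouse. Flooded paddy plants treated at 2-leaf stage; postemergence plants at 1- to 4-leaf stage, 2 to 18 cm tall.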
# pigweed = test: Test C pre-/postemergence herbicide test; format: in vivo, Amaranthus retroflexus; settings: preemergence; for Plant response rating (0 = no effect, 100 = complete control), Pigweed: 125 g ai/ha
# How it was run: as §1
# [1] = 500 g ai/ha, scale 0 to 100 (0 no effect, 100 complete control), visual, 12 to 14 days
# [2] = 125 g ai/ha, scale 0 to 100 (0 no effect, 100 complete control)
# [3] = 250 g ai/ha, scale of 0 to 100, 0 is no effect, 100 is complete control
# [4] = scale 0 to 100 (0 no effect, 100 complete control)
# [5] = 125 g ai/ha, visual rating, postemergence
# [6] = 62 g ai/ha, scale 0 to 100 (0 no effect, 100 complete control)
SMILES,"Plant response rating, Nutsedge, Yellow (yellow nutsedge; 250 g ai/ha, scale 0-100)","Ducksalad plant response rating (ducksalad; 62 g ai/ha, scale 0 to 100)",Ducksalad plant response rating (ducksalad; [2]),Ducksalad plant response rating (ducksalad; [3]),"Plant response rating, Ducksalad (ducksalad; [4])","Plant response rating, Corn (corn; 62 g ai/ha, scale 0 to 100)","Plant response rating, Corn (corn; 250 g ai/ha, scale 0-100)","Plant response rating, Corn (corn; [1])","Plant response rating (0 to 100 scale), Foxtail, Giant (giant foxtail; 125 g ai/ha)","Foxtail, Giant plant response rating (giant foxtail; [5])","Foxtail, Giant plant response rating (giant foxtail; Postemergence, 500 g ai/ha)","Plant response rating, Cocklebur (cocklebur; 62 g ai/ha, scale 0 to 100)","Plant response rating (0 = no effect, 100 = complete control), Cocklebur (cocklebur)","Plant response rating, Cocklebur (cocklebur; 250 g ai/ha, scale 0-100)","Plant response rating, Cocklebur (cocklebur; [1])","Plant response rating, Kochia (kochia; 62 g ai/ha, scale 0 to 100)","Plant response rating (0 = no effect, 100 = complete control), Kochia (kochia)","Plant response rating, Kochia (kochia; 250 g ai/ha, scale 0-100)","Plant response rating, Kochia (kochia; [1])",Barnyardgrass plant response rating (barnyardgrass; [6]),further results
CCc1nn(C(C)(C)C)nc1C(=O)Nc1cccc(C(=S)N(C)C)c1 [Compound 395],80,15,20,55,55,0,85,90,100,30,50,0,15,80,85,100,100,100,100,75,"Plant response rating, Nutsedge, Yellow (yellow nutsedge; 62 g ai/ha, scale 0 to 100): 15; Plant response rating (0 = no effect, 100 = complete control), Nutsedge, Yellow (yellow nutsedge; 125 g ai/ha): 55; Plant response rating, Nutsedge, Yellow (yellow nutsedge; [1]): 90; Plant response rating (0 = no effect, 100 = complete control), Corn (corn; 125 g ai/ha): 45; Barnyardgrass plant response rating (barnyardgrass; [2]): 80; Barnyardgrass plant response rating (barnyardgrass; [3]): 80; Plant response rating, Barnyardgrass (barnyardgrass; [4]): 90; Plant response rating, Pigweed (pigweed; 62 g ai/ha, scale 0 to 100): 100; Plant response rating (0 = no effect, 100 = complete control), Pigweed (pigweed): 100; Plant response rating, Pigweed (pigweed; 250 g ai/ha, scale 0-100): 100; Plant response rating, Pigweed (pigweed; [1]): 100"
Cc1nn(C(C)(C)C)nc1C(=O)Nc1cccc(C(=O)N2CC=CC2)c1 [Compound 393],50,75,75,80,90,55,75,100,80,20,30,0,100,100,100,0,100,100,100,45,"Barnyardgrass plant response rating (barnyardgrass; [2]): 65; Barnyardgrass plant response rating (barnyardgrass; [3]): 75; Plant response rating, Barnyardgrass (barnyardgrass; [4]): 95; Plant response rating, Pigweed (pigweed; 62 g ai/ha, scale 0 to 100): 90; Plant response rating (0 = no effect, 100 = complete control), Pigweed (pigweed): 100; Plant response rating, Pigweed (pigweed; 250 g ai/ha, scale 0-100): 100; Plant response rating, Pigweed (pigweed; [1]): 100"
